US20210371483A1, “Composition for Inactivating Spores by Means of Antimicrobial Peptides” (Robert Bosch Gesellschaft Fur Medizinische Fruschung mbH, priority 2016, published 2021)
Entries after “also recorded” stand apart in the source; their conditions may differ. Where no end group is shown, it is not given here.

Experiments:
Assay type in all cases: cell-based, Clostridium difficile
C. difficile spores [1] = experiment: Electron microscopy of C. difficile spores incubated with gold-labeled HBD3 peptides (FIGS. 2 and 3)
C. difficile spores [2] = experiment: Spore germination experiment repeated with wash-out of the peptides after incubation; details: peptides washed out at end of incubation, medium free of peptides
Experimental: (§1) The effects of antimicrobial peptides on C. difficile spores were investigated by first enriching a bacterial suspension with spores so that at least 70% spores were present. The spore suspension was incubated for 60 minutes with various defensins (HBD1, HBD2, HBD3) and the cathelicidin LL37 (recombinant defensins: Peptanova Sandhausen, HBD1 order No. 4337; HBD2; 4338, HBD3 4382/recombinant LL37: Innovagen Lund Sweden, order No. SP-LL-37-1). Thereafter, aliquots of the samples were plated out on Columbia blood agar and incubated anaerobically for at least 4 days. The germinated spores in an untreated control and the preparations containing antimicrobial peptides were counted.
In order to able to establish with certainty whether either germinating bacteria are rapidly killed by the presence of antimicrobial peptides in the medium or the spores are in fact prevented from germinating, the experiment was repeated, but at the end of the incubation time, the peptides were washed out and the medium was free of peptides.

C. difficile spores [3] = experiment: Incubation of C. difficile spore suspension with antimicrobial peptides, plating and counting of germinated spores; details: spore suspension (at least 70% spores) incubated 60 minutes with peptide; plated on Columbia blood agar, anaerobic at least 4 days
Experimental: as §1

C. difficile spores [4] = experiment: Spore germination after incubation, wash-out and heat killing of residual vegetative cells (FIG. 1); details: for decrease in germinating spores: incubation, wash-out, heat 61° C., 30 min, as a function of peptide concentration
Experimental: as §1
In further experiments, the inventers wanted to make the unambiguous assignment that resultant bacterial colonies can be attributed with certainty to the germinated spores and not to the steady growth of residual vegetative cells. To this end, incubation and wash-out were followed by killing the residual vegetative cells using heat (61° C., 30 min). This heat treatment kills only the vegetative cells, but not the spores.

human beta-defensin-3 (GIINTLQKYYCRVRGGRCAVLSCLPKEEQIGKCSTRGRKCCRRKK; ends and bridges not checked; cysteine pairing not given here; UniProt P81534 23-67, looked up) [HBD3, Human beta-defensin 3, protein composed of 45 amino acids, net charge +11; recombinant, Peptanova order No. 4382]
structural destruction of the spores (C. difficile spores [1]): destroyed structurally; also recorded: destroys parts of the spore structure | penetration into the spores (C. difficile spores [1]; gold-labeled HBD3 peptides): able to penetrate into the spores; also recorded: penetrates into the exosporium | inhibitory effect on spore germination despite wash-out (C. difficile spores [2]): maintained | germinated spores in comparison with the controls (C. difficile spores [3]): significantly fewer germinated spores | number of germinating spores (C. difficile spores [4]; 2.5 μg/mL peptide, after wash-out and heat treatment): greatly lowering the number of germinating spores | efficacy compared with the other effective peptide (C. difficile spores [4]; in lower concentrations, after wash-out and heat treatment): somewhat higher efficacy | decrease in germinating spores (C. difficile spores [4]): concentration-dependent decrease in germinating spores

cathelicidin LL-37 [LL37]
inhibitory effect on spore germination despite wash-out (C. difficile spores [2]): maintained | germinated spores in comparison with the controls (C. difficile spores [3]): significantly fewer germinated spores | difference between the effect of LL37 and HBD3 (C. difficile spores [4]; at larger concentrations (10 μg/mL)): hardly noticeable | difference between the effect of LL37 and HBD3 (C. difficile spores [4]; at low concentrations): distinct difference | decrease in germinating spores (C. difficile spores [4]): concentration-dependent decrease in germinating spores
